Laboratory results: patent US8742100B2, “Small molecule inhibitors of isoprenylcysteine carboxyl methyltransferase with potential anticancer activity” (National University of Singapore, priority 2009, dated 2014)
Read-outs that look alike come from different tables or passages of the source.

Legend:
[1] = Binding to fetal bovine serum (plasma protein binding), centrifugal filter device, HPLC; type: in vitro ADME; conditions: bovine, 5% w/v fetal bovine serum in phosphate buffered saline; for fraction unbound at 30 min, 1 µM / fraction unbound at 30 min, 4 µM / fraction unbound at 30 min, 10 µM / fraction unbound at 30 min, 25 µM: 5% fetal bovine serum in PBS
Procedure: (§1) Semi-automatic high-throughput determination of plasma protein binding using a 96-well plate filtrate assembly and fast liquid chromatography—tandem mass spectrometry. […] Stock solutions were prepared in DMSO at 100× higher concentrations. A 5% w/v solution of fetal bovine serum in phosphate buffered saline was prepared. An aliquot (10 μL of the stock solution was added to 990 μL of the PBS solution containing 5% fetal bovine serum in a glass tube which was then incubated in a shaking water bath at 37° C. for 30 min. 500 μL of the solution was then transferred to a centrifugal filter device (Amicon Ultra 0.5 ml # UFC503096) and centrifuged at 14 000g, 15 min. After this time, the filter units were removed and placed (upside down) in a collecting tube containing 477 μL, of PBS. The latter was centrifuged at 2000g, 2 min to obtain the retentate. […] J.

fetal bovine serum = assay: as above; type: in vitro ADME; conditions: fetal bovine serum
Procedure: as §1

[2] = read-out: % Bound Average (converted)
[3] = read-out: % Bound Run 1 (converted)
[4] = read-out: % Bound Run 2 (converted)
[5] = read-out: % Bound Run 3 (converted)

fraction unbound at 30 min, 1 µM [1, 2]: 0.182
fraction unbound at 30 min, 1 µM [1, 3]: 0.17
fraction unbound at 30 min, 1 µM [1, 4]: 0.224
fraction unbound at 30 min, 1 µM [1, 5]: 0.151
fraction unbound at 30 min, 4 µM [1, 2]: 0.272
fraction unbound at 30 min, 4 µM [1, 3]: 0.274
fraction unbound at 30 min, 4 µM [1, 4]: 0.301
fraction unbound at 30 min, 4 µM [1, 5]: 0.243
fraction unbound at 30 min, 10 µM [1, 2]: 0.299
fraction unbound at 30 min, 10 µM [1, 3]: 0.317
fraction unbound at 30 min, 10 µM [1, 4]: 0.353
fraction unbound at 30 min, 10 µM [1, 5]: 0.226
fraction unbound at 30 min, 25 µM [1, 2]: 0.304
fraction unbound at 30 min, 25 µM [1, 3]: 0.286
fraction unbound at 30 min, 25 µM [1, 4]: 0.352
fraction unbound at 30 min, 25 µM [1, 5]: 0.275
fraction unbound at 30 min ([1]; all conc (1, 4, 10, 25 uM), read-out: % Bound Average, all conc (converted)): 0.264
SMILES: CCCCCCCCn1cc(CN(CC)CC)c2cc(-c3cccc(C)c3)ccc21 [Compound J17G, N-ethyl-N-((1-octyl-5-m-tolyl-1H-indol-3-yl)methyl)ethanamine]
binding capacity compared with cysmethynil (fetal bovine serum): lower binding capacities than cysmethynil
